From ChEMBL document CHEMBL1201862, “PubChem BioAssay data set” (2004) come the findings set out here.

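96-well plates; 48 h exposure; 5 concentrations. Endpoints by linear interpolation between flanking doses. Not reached: highest tested concentration assigned. GI50: concentration for 50% inhibition of growth.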 Active and inactive are the calls of the source. No stated cut-off is given here; in the data, active = GI50 up to about 1.1 µM and inactive = higher.

Among the test systems are HCT-116; NCI-H522; Malme-3M; BT-549; CAKI-1; SF-539; SF-295; HCC 2998; SW-620; EKVX; OVCAR-3; CCRF-CEM; UO-31; M14; IGROV-1; UACC-257; SK-MEL-5; SK-OV-3; PC-3; SNB-19.
Common to all, as to experiment: inhibition of tumour cell growth, NCI panel, 48 h

As for `CC(C)(Cl)C(Br)CC/C(CBr)=C(/Cl)CCl.CC(C)(Cl)C(Br)CC/C(CBr)=C(\Cl)CCl` (stereo not given), the GI50 in the experiment on HCT-116 is 1.82 µM (inactive); in the experiment on NCI-H522, 1.45 µM (inactive); with Malme-3M, 1.9 µM (inactive); in the experiment with BT-549, 2.01 µM (inactive); with CAKI-1, 2.41 µM (inactive); in the experiment on SF-539, 2.07 µM (inactive). In addition, the GI50 in the experiment with SF-295 is > 10 µM (inactive); in the experiment on HCC 2998, 2.86 µM (inactive); in the experiment on SW-620 it was 2.64 µM (inactive); in the experiment with EKVX, 6.17 µM (inactive); in the experiment on OVCAR-3, 2.32 µM (inactive); in the experiment with CCRF-CEM, 0.126 µM (active). Moreover, the GI50 with UO-31 was 1.95 µM (inactive); in the experiment with M14, 1.49 µM (inactive); with IGROV-1, 0.782 µM (active); in the experiment with UACC-257 it was 2.13 µM (inactive); with SK-MEL-5, 1.82 µM (inactive); with SK-OV-3, 3.36 µM (inactive). In addition, the GI50 in the experiment with PC-3 was 2.33 µM (inactive); in the experiment on SNB-19 it was 6.15 µM (inactive).
As to `COn1cc(CO)c2ccccc21`, the GI50 was 45.3 µM (inactive) in the experiment on HCT-116; 21.5 µM (inactive) in the experiment on NCI-H522; 53 µM (inactive) in the experiment with Malme-3M; > 100 µM (inactive) in the experiment on BT-549; 3.37 µM (inactive) with CAKI-1; > 100 µM (inactive) with SF-539. Further, the GI50 is > 100 µM (inactive) in the experiment with SF-295; 32.8 µM (inactive) in the experiment on HCC 2998; 27.5 µM (inactive) in the experiment on SW-620; > 83.2 µM (inactive) with EKVX; 40.8 µM (inactive) in the experiment on OVCAR-3; 34.7 µM (inactive) with CCRF-CEM. In addition, the GI50 in the experiment with UO-31 was 33.1 µM (inactive); with M14 it was > 86.9 µM (inactive); in the experiment with IGROV-1, 22 µM (inactive); with UACC-257 it was 25.2 µM (inactive); in the experiment on SK-MEL-5 it was 64.1 µM (inactive); in the experiment with SK-OV-3 it was > 100 µM (inactive). Moreover, the GI50 is > 75.2 µM (inactive) with PC-3 and > 100 µM (inactive) in the experiment with SNB-19.
Regarding `C/C(=N\N=C(/S)N(C)C)c1cccnn1`, the GI50 in the experiment with HCT-116 is 0.369 µM (active); in the experiment with NCI-H522, 0.74 µM (active); in the experiment with Malme-3M it was 0.76 µM (active); in the experiment on BT-549 it was 0.869 µM (active); in the experiment on CAKI-1, 0.853 µM (active); with SF-539, 0.513 µM (active). Moreover, the GI50 in the experiment with SF-295 is 0.879 µM (active); in the experiment on HCC 2998, 7.46 µM (inactive); in the experiment with SW-620 it was 0.612 µM (active); in the experiment on EKVX it was 0.551 µM (active); in the experiment with OVCAR-3 it was 0.424 µM (active); with CCRF-CEM, 0.275 µM (active). The GI50 was 0.564 µM (active) in the experiment with UO-31; 0.594 µM (active) with M14; 0.689 µM (active) in the experiment on IGROV-1; 0.438 µM (active) with UACC-257; 0.486 µM (active) in the experiment with SK-MEL-5; 1.26 µM (inactive) with SK-OV-3. In addition, the GI50 in the experiment with PC-3 is 0.385 µM (active); in the experiment with SNB-19 it was 1.46 µM (inactive).
In the case of `COc1c(O)cc(O)c2c(=O)cc(-c3ccccc3)oc12` [WOGONIN], the GI50 was 24.3 µM (inactive) in the experiment on HCT-116; 40.6 µM (inactive) in the experiment with NCI-H522; 85.3 µM (inactive) in the experiment with Malme-3M; 55.2 µM (inactive) in the experiment with BT-549; 48.6 µM (inactive) with CAKI-1; 42.5 µM (inactive) in the experiment on SF-539. In addition, the GI50 was 34.5 µM (inactive) in the experiment with SF-295; 35.2 µM (inactive) with HCC 2998; 54.1 µM (inactive) in the experiment with SW-620; 61.5 µM (inactive) with EKVX; 24.5 µM (inactive) in the experiment with OVCAR-3; 27 µM (inactive) in the experiment on CCRF-CEM. Moreover, the GI50 was 2.58 µM (inactive) in the experiment with UO-31; 69 µM (inactive) in the experiment on M14; 29.4 µM (inactive) in the experiment on IGROV-1; 87.9 µM (inactive) in the experiment on UACC-257; 34.2 µM (inactive) with SK-MEL-5; 77.8 µM (inactive) in the experiment with SK-OV-3. Moreover, the GI50 with PC-3 is 51.1 µM (inactive); with SNB-19, 58.7 µM (inactive).
Turning to `N=C(N)SCC(=O)O`, the GI50 in the experiment on HCT-116, in the experiment with NCI-H522, with Malme-3M, in the experiment on BT-549, with CAKI-1 and with SF-539 was > 100 µM (inactive) each time. The GI50 with SF-295, in the experiment with HCC 2998, in the experiment on SW-620, in the experiment with EKVX, in the experiment with OVCAR-3 and in the experiment with CCRF-CEM was > 100 µM (inactive) in each case. Also, the GI50 with UO-31, in the experiment on M14, in the experiment with IGROV-1, with UACC-257, with SK-MEL-5 and in the experiment on SK-OV-3 was > 100 µM (inactive) in each case. In addition, the GI50 in the experiment on PC-3 and with SNB-19 was > 100 µM (inactive) in each case.
In the case of `COc1ccc(C(C#N)NCCCCCCNC(C#N)c2ccc(OC)cc2)cc1` (stereo not given), the GI50 with HCT-116, with NCI-H522, in the experiment with Malme-3M, in the experiment on BT-549, with CAKI-1 and in the experiment on SF-539 was > 100 µM (inactive) throughout. Also, the GI50 with SF-295, with HCC 2998, with SW-620, in the experiment with EKVX, in the experiment on OVCAR-3 and in the experiment with CCRF-CEM was > 100 µM (inactive) throughout. For the same compound, the GI50 in the experiment with UO-31, in the experiment with M14, in the experiment with IGROV-1, with UACC-257, in the experiment with SK-MEL-5 and in the experiment with SK-OV-3 was > 100 µM (inactive) in each case. Besides, the GI50 in the experiment on PC-3 and in the experiment on SNB-19 was > 100 µM (inactive) throughout.
Consider `C#C[C@]1(O)CC[C@H]2[C@@H]3CCC4=C/C(=N\OCCN(CC)CC)CC[C@]4(C)[C@H]3CC[C@@]21C`, for which the GI50 in the experiment with HCT-116 is 3.44 µM (inactive); with NCI-H522, 2.42 µM (inactive); in the experiment on Malme-3M, 3.25 µM (inactive); in the experiment with BT-549, 10 µM (inactive); in the experiment with CAKI-1 it was 7.93 µM (inactive); in the experiment with SF-539 it was 4.26 µM (inactive). Besides, the GI50 with SF-295 was 2.16 µM (inactive); in the experiment with HCC 2998 it was 10.2 µM (inactive); in the experiment on SW-620, 7.18 µM (inactive); in the experiment with EKVX, 6.87 µM (inactive); in the experiment with OVCAR-3, 2.87 µM (inactive); with CCRF-CEM it was 3.33 µM (inactive). Further, the GI50 with UO-31 was 3.72 µM (inactive); in the experiment with M14 it was 3.02 µM (inactive); in the experiment with IGROV-1, 3.85 µM (inactive); in the experiment with UACC-257, 4.31 µM (inactive); with SK-MEL-5, 2.44 µM (inactive); with SK-OV-3, 9.4 µM (inactive). The GI50 in the experiment on PC-3 is 3.18 µM (inactive); in the experiment on SNB-19, 5.06 µM (inactive).
Consider `Clc1ccc(-c2nc(-c3ccc(Cl)cc3)[s+]s2)cc1`, for which the GI50 with HCT-116 was 51.4 µM (inactive); in the experiment on NCI-H522, 29.4 µM (inactive); in the experiment with Malme-3M, 18.7 µM (inactive); with BT-549 it was 72.9 µM (inactive); in the experiment on CAKI-1, > 100 µM (inactive); in the experiment with SF-539, 29.7 µM (inactive). In addition, the GI50 is > 100 µM (inactive) in the experiment on SF-295; > 100 µM (inactive) with HCC 2998; 55.8 µM (inactive) in the experiment on SW-620; 56.2 µM (inactive) in the experiment with EKVX; 51.2 µM (inactive) in the experiment on OVCAR-3; 37 µM (inactive) in the experiment with CCRF-CEM. Also, the GI50 was > 100 µM (inactive) with UO-31; > 100 µM (inactive) with M14; 19.7 µM (inactive) with IGROV-1; 55.2 µM (inactive) with UACC-257; 47.8 µM (inactive) in the experiment with SK-MEL-5; 41.1 µM (inactive) with SK-OV-3. In addition, the GI50 in the experiment with PC-3 was > 100 µM (inactive); in the experiment on SNB-19, 50.5 µM (inactive).
